In patent US20030013140A1, “Method of detecting ligand or ligand-like low-molecular weight compound” (priority 2000, published 2003):

How the values were obtained:
Type in all cases: cell-based
[1] = molecular target: T1, human G-CSF receptor (BAF/hGCSFR cell line) (Homo sapiens, UniProt Q99062); test: Cytoproliferative activity of the human G-CSF-dependent cell line BAF/hGCSFR (WST-1/1-methoxy PMS, 450 nm)
T1 construct: expressed in transfected cells; host or cells: BAF/B03 (mouse IL-3-dependent pro-B cell line), vector pIRESpuro
T1 sequence (Q99062 25-836): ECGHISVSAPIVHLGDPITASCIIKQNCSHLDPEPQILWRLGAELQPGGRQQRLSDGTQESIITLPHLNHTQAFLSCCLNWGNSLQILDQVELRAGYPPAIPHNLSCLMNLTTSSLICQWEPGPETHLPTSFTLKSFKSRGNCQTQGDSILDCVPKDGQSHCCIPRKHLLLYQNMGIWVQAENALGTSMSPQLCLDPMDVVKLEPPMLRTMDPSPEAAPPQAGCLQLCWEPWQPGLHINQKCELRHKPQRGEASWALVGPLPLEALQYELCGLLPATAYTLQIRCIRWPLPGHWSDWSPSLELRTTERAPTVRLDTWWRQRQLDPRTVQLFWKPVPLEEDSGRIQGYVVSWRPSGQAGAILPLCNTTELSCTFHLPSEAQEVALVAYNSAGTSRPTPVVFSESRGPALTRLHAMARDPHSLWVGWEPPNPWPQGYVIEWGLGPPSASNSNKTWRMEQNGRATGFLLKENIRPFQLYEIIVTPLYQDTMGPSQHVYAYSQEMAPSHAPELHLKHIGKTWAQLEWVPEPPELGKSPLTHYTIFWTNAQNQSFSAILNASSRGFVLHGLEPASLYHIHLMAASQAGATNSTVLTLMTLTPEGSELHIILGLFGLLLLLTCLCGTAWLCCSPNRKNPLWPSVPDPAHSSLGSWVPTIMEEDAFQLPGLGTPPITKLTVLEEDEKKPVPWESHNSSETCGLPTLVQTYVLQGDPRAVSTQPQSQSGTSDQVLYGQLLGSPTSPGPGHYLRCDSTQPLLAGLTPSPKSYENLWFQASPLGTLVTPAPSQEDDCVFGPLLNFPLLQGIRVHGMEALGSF
Procedure: Upon determining cytoproliferative activity, a cell line transfected with the human G-CSF receptor gene (BAF/hGCSFR) was recovered and, subsequent to its washing with PBS(−), was suspended in DMEM medium ((−)FCS). The cells were prepared at 5×10^4 cells/well on a 96-well plate. To the individual wells, rhG-CSF was added at 0, 0.025, 0.1, 0.4, 1.6 or 6.4 ng/mL, respectively, followed by incubation at 5% CO2 and 37° C. for 48 hours. Subsequent to the incubation, a WST-1/1-methoxy PMS solution (product of Dojindo Laboratories) was added to the individual wells (final concentration: 5 mM), and a staining reaction was then conducted in a CO2 incubator. After the reaction, measurement was conducted at a measurement wavelength of 450 nm.
(§1) With respect to the cell line (BAF/hGCSFR) obtained in Example 1 with the human G-CSF receptor gene introduced therein, effects which may be given to its screening by the existence of a reducing agent (2-mercaptoethanol) was investigated as will be described next. Firstly, two culture media were provided, one being a culture medium obtained by adding 2-mercaptoethanol at 5×10^−5 M to DMEM medium ((−)FCS) and the other consisting solely of DMEM medium ((−)FCS) without incorporation of the additives. […]

[2] = molecular target: T2, human IL-10 receptor (BAF/hIL-10R cell line) (Homo sapiens, UniProt Q13651); test: Cytoproliferative activity of the human IL-10-dependent cell line BAF/hIL-10R (WST-1/1-methoxy PMS, 450 nm); details: 2-mercaptoethanol 5×10^-5 M vs medium alone; marked differences at rhIL-10 10, 100 and 1,000 ng/mL; FIG. 6
T2 construct: expressed in transfected cells; host or cells: BAF/B03 (mouse IL-3-dependent pro-B cell line), vector pIRESpuro
T2 sequence (Q13651 22-578): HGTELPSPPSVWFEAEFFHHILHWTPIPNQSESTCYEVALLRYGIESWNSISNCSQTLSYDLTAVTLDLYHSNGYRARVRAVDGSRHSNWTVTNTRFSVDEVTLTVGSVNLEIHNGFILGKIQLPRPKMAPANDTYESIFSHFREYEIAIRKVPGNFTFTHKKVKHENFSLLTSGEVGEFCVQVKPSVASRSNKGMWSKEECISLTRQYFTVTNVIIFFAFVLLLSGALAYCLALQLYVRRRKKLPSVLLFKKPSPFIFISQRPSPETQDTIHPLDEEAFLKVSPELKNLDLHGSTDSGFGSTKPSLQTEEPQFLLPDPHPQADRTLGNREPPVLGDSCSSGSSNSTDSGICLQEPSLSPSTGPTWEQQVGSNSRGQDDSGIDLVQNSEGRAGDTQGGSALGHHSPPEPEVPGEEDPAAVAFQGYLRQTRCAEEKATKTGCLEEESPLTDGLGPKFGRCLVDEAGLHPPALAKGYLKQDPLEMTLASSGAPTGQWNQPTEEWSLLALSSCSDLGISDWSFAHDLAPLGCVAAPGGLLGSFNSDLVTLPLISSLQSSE
T2 sequence (Q61190 20-349 partner): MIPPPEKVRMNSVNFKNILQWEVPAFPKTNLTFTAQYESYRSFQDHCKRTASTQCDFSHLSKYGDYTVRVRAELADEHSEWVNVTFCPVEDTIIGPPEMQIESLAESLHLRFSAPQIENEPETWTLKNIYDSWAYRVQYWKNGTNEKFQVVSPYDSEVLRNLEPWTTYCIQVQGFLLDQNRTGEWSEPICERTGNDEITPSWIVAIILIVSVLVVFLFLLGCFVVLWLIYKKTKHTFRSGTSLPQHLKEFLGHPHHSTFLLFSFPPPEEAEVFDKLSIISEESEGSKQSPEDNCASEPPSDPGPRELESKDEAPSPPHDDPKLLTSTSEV
Procedure: Upon determining cytoproliferative activity, a cell line transfected with the human IL-10 receptor gene (BAF/hIL-10R) was recovered and, subsequent to its washing with PBS(−), was suspended in DMEM medium ((−)FCS). The cells were prepared at 5×10^4 cells/well on a 96-well plate. To the individual wells, rhIL-10 was added at 0, 0.0001, 0.001, 0.01, 0.1, 1, 10, 100 or 1,000 ng/mL, respectively, followed by incubation at 5% CO2 and 37° C. for 48 hours. Subsequent to the incubation, the WST-1/1-methoxy PMS solution (product of Dojindo Laboratories) was added (final concentration: 5 mM), and a staining reaction was then conducted in a CO2 incubator. After the reaction, measurement was conducted at a measurement wavelength of 450 nm.
as §1, with “line (BAF/hIL-10R)” for “line (BAF/hGCSFR)”, “Example 2” for “Example 1”, “human IL-10” for “human G-CSF”, “without addition” for “without incorporation”, “the reducing agent.” for “the additives.”

[3] = molecular target: T3, human EPO receptor (BAF/hEPOR cell line) (Homo sapiens, UniProt P19235); test: Cytoproliferative activity of the human EPO-dependent cell line BAF/hEPOR (WST-1/1-methoxy PMS, 450 nm); details: 2-mercaptoethanol 5×10^-5 M vs medium alone; FIG. 9
T3 construct: expressed in transfected cells; host or cells: BAF/B03 (mouse IL-3-dependent pro-B cell line), vector pIRESpuro; cDNA from a human erythroid leukemia cell line
T3 sequence (P19235 25-508): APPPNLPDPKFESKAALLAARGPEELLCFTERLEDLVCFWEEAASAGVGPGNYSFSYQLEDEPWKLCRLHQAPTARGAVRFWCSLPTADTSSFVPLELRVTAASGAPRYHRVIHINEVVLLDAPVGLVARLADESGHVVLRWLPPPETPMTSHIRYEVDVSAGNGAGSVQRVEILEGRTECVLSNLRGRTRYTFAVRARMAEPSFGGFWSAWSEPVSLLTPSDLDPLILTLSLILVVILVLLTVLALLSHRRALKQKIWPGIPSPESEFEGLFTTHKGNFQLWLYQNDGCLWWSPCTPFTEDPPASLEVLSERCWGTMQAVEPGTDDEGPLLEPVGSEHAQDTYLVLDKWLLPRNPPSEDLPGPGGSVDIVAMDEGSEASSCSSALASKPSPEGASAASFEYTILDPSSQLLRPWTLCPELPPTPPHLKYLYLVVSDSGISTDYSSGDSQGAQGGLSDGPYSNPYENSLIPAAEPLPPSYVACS
Procedure: Upon determining cytoproliferative activity, a cell line transfected with the human EPO receptor gene (BAF/hEPOR) was recovered and, subsequent to its washing with PBS(−), was suspended in DMEM medium ((−)FCS). The cells were prepared at 5×10^4 cells/well on a 96-well plate. […] Subsequent to the incubation, a WST-1/1-methoxy PMS solution (product of Dojindo Laboratories) was added to the individual wells (final concentration: 5 mM), and a staining reaction was then conducted in a CO2 incubator. After the reaction, measurement was conducted at a measurement wavelength of 450 nm.
With respect to the cell line (BAF/hEPOR) obtained in Example 8 with the human EPO receptor gene introduced therein, effects which may be given to its screening by the existence of a reducing agent (2-mercaptoethanol) was investigated as will be described next. Firstly, two culture media were provided, one being a culture medium obtained by adding 2-mercaptoethanol at 5×10^−5 M to DMEM medium ((−)FCS) and the other consisting solely of DMEM medium ((−)FCS) without addition of the reducing agent. Those culture media were poured into individual wells of 96-well plates, respectively, and BAF/hEPOR which had been washed with PBS(−) was suspended at 5×10^4 cells/well. […]

| SMILES | effect of reducing agent on cytoproliferation of BAF/hG-CSFR in the presence of rhG-CSF ([1]; 2-mercaptoethanol 5×10^-5 M vs medium alone, marked differences at rhG-CSF 0.1, 0.4, 1.6 and 6.4 ng/mL, FIG. 3) | effect of reducing agent on cytoproliferation of BAF/hIL-10R in the presence of rhIL-10 [2] | effect of reducing agent on cytoproliferation of BAF/hEPOR in the presence of rhEPO [3] | cytoproliferation of BAF/hG-CSFR in the presence of SB247464 on addition of WEHI sup to the culture medium ([1]; WEHIsup 1.25% with 2-mercaptoethanol 5×10^-5 M vs medium alone, SB247464 0 to 10^-6 M, marked differences at 10^-8, 10^-9 and 10^-10, FIG. 5) |
| --- | --- | --- | --- | --- |
| OCCS [2-mepcaptoethanol, 2-mercaptoethanol] | enhanced | enhanced | enhanced | – |
| c1ccc(C23N=C(Nc4nc5ccccc5[nH]4)NC2(c2ccccn2)NC(Nc2nc4ccccc4[nH]2)=N3)nc1 (stereo not shown) [SB247464, reference compound] | – | – | – | enhanced |
